# “And” between values parts separate entries of the source, which are not always exact repeats. Equal entries are not always repeated.
# Tests used:
# [1] = tested on: CAL-148; test: drug sensitivity score (DSS), CellTiter-Glo (DSS (AUC-based score)); higher = stronger drug effect (viability inhibition or cytotoxicity); extreme values may be limits of the assay; settings: incubation time: 72 h
# In short: (§1)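 Breast cancer cell lines, seeded as 20 µl suspension, were incubated 72 h with compound in 384-well plates at 5 concentrations in 10-fold steps over a 10,000-fold range set for each compound. Fluorescence from CellTox Green was read at 485/520 nm before CellTiter-Glo luminescence, which was read after 10 min at room temperature. Every plate was normalised to 0.1 % DMSO and a positive kill control, and the drug sensitivity score was taken from the area under the fitted dose-response curve.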
# [2] = tested on: SK-BR-3; test: as above; settings: incubation time: 72 h
# In short: as §1
# [3] = tested on: MDA-MB-468; test: as above; settings: incubation time: 72 h
# In short: as §1
# [4] = tested on: HDQ-P1; test: as above; settings: incubation time: 72 h
# In short: as §1
# [5] = tested on: MCF-10A; test: as above; settings: incubation time: 72 h
# In short: as §1
# [6] = tested on: CAL-85-1; test: as above; settings: incubation time: 72 h
# In short: as §1
# [7] = tested on: BT-549; test: as above; settings: incubation time: 72 h
# In short: as §1
# [8] = tested on: BT-474; test: as above; settings: incubation time: 72 h
# In short: as §1
# [9] = tested on: CAL-51; test: normalised viability (% of control), CellTiter-Blue; higher = more viable cells (about 100 = DMSO control); settings: incubation time: 72 h
# In short: (§2)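 Plates were quality-checked by Z'-factor and normalised to vehicle (100) and a positive kill control (0). The underlying assay incubated breast cancer cell lines for 72 h on 384-well plates with compound, then added 2.5 µl CellTiter-Blue for 2 h at 37 °C and read at 560/590 nm. The value is normalised viability at a single listed concentration of the series.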
# [10] = tested on: CAL-148; test: as above; settings: incubation time: 72 h
# In short: as §2
# [11] = tested on: SK-BR-3; test: as above; settings: incubation time: 72 h
# In short: as §2
# [12] = tested on: HCC1143; test: as above; settings: 1000 nM; incubation time: 72 h
# In short: as §2
# [13] = tested on: CAL-120; test: as above; settings: incubation time: 72 h
# In short: as §2
# [14] = tested on: MDA-MB-468; test: as above; settings: incubation time: 72 h
# In short: as §2
# [15] = tested on: MDA-MB-436; test: as above; settings: 1000 nM; incubation time: 72 h
# In short: as §2
# [16] = tested on: HCC1937; test: as above; settings: incubation time: 72 h
# In short: as §2
# [17] = tested on: Hs578T; test: as above; settings: incubation time: 72 h
# In short: as §2
# [18] = tested on: MDA-MB-453; test: as above; settings: incubation time: 72 h
# In short: as §2
# [19] = tested on: BT-549; test: as above; settings: incubation time: 72 h
# In short: as §2
# [20] = tested on: HCC1599; test: as above; settings: incubation time: 72 h
# In short: as §2
# [21] = tested on: MFM-223; test: as above; settings: incubation time: 72 h
# In short: as §2
# [22] = tested on: BT-474; test: as above; settings: incubation time: 72 h
# In short: as §2
# [23] = tested on: CAL-51; settings: 72 h
# In short: (§3)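 For viability and cell death testing, 384-well plates carried compound at 5 concentrations in 10-fold steps over a compound-specific 10,000-fold range, and breast cancer cell lines were seeded in 20 µl suspension. After 72 h incubation, cell death was read by CellTox Green fluorescence (485/520 nm) before viability was read by CellTiter-Glo luminescence. EC50 was fitted from the dose-response curves and censored at the top concentration. Normalisation on each plate was to 0.1 % DMSO and a positive kill control.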
# [24] = tested on: SK-BR-3; settings: 72 h
# In short: as §3
# [25] = tested on: CAL-120; settings: 72 h
# In short: as §3
# [26] = tested on: MDA-MB-468; settings: 72 h
# In short: as §3
# [27] = tested on: MDA-MB-436; settings: 72 h
# In short: as §3
# [28] = tested on: HCC1937; settings: 72 h
# In short: as §3
# [29] = tested on: Hs578T; settings: 72 h
# In short: as §3
# [30] = tested on: CAL-85-1; settings: 72 h
# In short: as §3
# [31] = tested on: MDA-MB-453; settings: 72 h
# In short: as §3
# [32] = tested on: BT-549; settings: 72 h
# In short: as §3
# [33] = tested on: BT-474; settings: 72 h
# In short: as §3
smiles,measurement,setting,value
O=C(O)CCCc1ccc(N(CCCl)CCCl)cc1 [Chlorambucil],drug sensitivity score,[1],0
same,drug sensitivity score,[2],0
same,drug sensitivity score,[3],0
same,drug sensitivity score,[4],0
same,drug sensitivity score,[5],0
same,drug sensitivity score,[6],0
same,drug sensitivity score,[7],0
same,drug sensitivity score,[8],0
same,normalised viability,[9]; 30 nM,112%
same,normalised viability,[10]; 30 nM,104%
same,normalised viability,[11]; 1000 nM,105%
same,normalised viability,[12],93.9%
same,normalised viability,[13]; 1000 nM,98.5%
same,normalised viability,[14]; 1000 nM,68.3%
same,normalised viability,[15],91.8%
same,normalised viability,[16]; 1000 nM,68.7%
same,normalised viability,[17]; 1000 nM,102%
same,normalised viability,[18]; 30 nM,94.3%
same,normalised viability,[19]; 1000 nM,102%
same,normalised viability,[20]; 1000 nM,97.1%
same,normalised viability,[21]; 1000 nM,106%
same,normalised viability,[22]; 1000 nM,112%
CO[C@H]1C[C@@H]2CC[C@@H](C)[C@@](O)(O2)C(=O)C(=O)N2CCCC[C@H]2C(=O)O[C@H]([C@H](C)C[C@@H]2CC[C@@H](OCCO)[C@H](OC)C2)CC(=O)[C@H](C)/C=C(\C)[C@@H](O)[C@@H](OC)C(=O)[C@H](C)C[C@H](C)/C=C/C=C/C=C/1C [Everolimus],drug sensitivity score,[1],13.4
same,drug sensitivity score,[2],12.7
same,drug sensitivity score,[3],16
same,drug sensitivity score,[4],3.41
same,drug sensitivity score,[5],0
same,drug sensitivity score,[6],10.6
same,drug sensitivity score,[7],13
same,drug sensitivity score,[8],3.02
same,normalised viability,[9]; 3 nM,49.6% and 52.9%
same,normalised viability,[10]; 3 nM,50.4% and 48.4%
same,normalised viability,[11]; 100 nM,59.7% and 44.4%
same,normalised viability,[13]; 100 nM,54.1% and 36.7%
same,normalised viability,[14]; 100 nM,72.6% and 66.8%
same,normalised viability,[16]; 100 nM,48.8% and 48.4%
same,normalised viability,[17]; 100 nM,62.4% and 51%
same,normalised viability,[18]; 3 nM,30.8% and 28.6%
same,normalised viability,[19]; 100 nM,62.1% and 54.9%
same,normalised viability,[20]; 100 nM,87% and 69.7%
same,normalised viability,[21]; 100 nM,50% and 45.1%
same,normalised viability,[22]; 100 nM,65.9% and 57.5%
same,"EC50, CellTiter-Glo",[23],0.67 nM
same,"EC50, CellTiter-Glo",[24],0.49 nM
same,"EC50, CellTiter-Glo",[25],0.67 nM
same,"EC50, CellTiter-Glo",[26],0.13 nM
same,"EC50, CellTiter-Glo",[27],0.76 nM
same,"EC50, CellTiter-Glo",[28],0.24 nM
same,"EC50, CellTiter-Glo",[29],0.18 nM
same,"EC50, CellTiter-Glo",[30],0.22 nM
same,"EC50, CellTiter-Glo",[31],1.65 nM
same,"EC50, CellTiter-Glo",[32],0.13 nM
same,"EC50, CellTiter-Glo",[33],4.76 nM
CNNCc1ccc(C(=O)NC(C)C)cc1 [Procarbazine],drug sensitivity score,[1],0
same,drug sensitivity score,[2],0
same,drug sensitivity score,[3],0
same,drug sensitivity score,[4],0
same,drug sensitivity score,[5],0
same,drug sensitivity score,[6],0
same,drug sensitivity score,[7],0
same,drug sensitivity score,[8],0
same,normalised viability,[9]; 30 nM,106%
same,normalised viability,[10]; 30 nM,101%
same,normalised viability,[11]; 1000 nM,113%
same,normalised viability,[12],105%
same,normalised viability,[13]; 1000 nM,99%
same,normalised viability,[14]; 1000 nM,124%
same,normalised viability,[15],88.8%
same,normalised viability,[16]; 1000 nM,77.8%
same,normalised viability,[17]; 1000 nM,103%
same,normalised viability,[18]; 30 nM,114%
same,normalised viability,[19]; 1000 nM,98.8%
same,normalised viability,[20]; 1000 nM,88.9%
same,normalised viability,[21]; 1000 nM,95.5%
same,normalised viability,[22]; 1000 nM,114%

# Reference: the supplement of paper PMC4862054
